Experimental data reported in EPA's CvTdb concentration-time database.
One block for each molecule: values may come before it.

Legend:
Rat [1] = test: concentration in plasma after dosing; conditions: 0.25 h; dosed: Wyeth-14643; 5.0 mg/kg; oral; Male; Sprague-Dawley
Rat [2] = test: concentration in plasma after dosing; conditions: 0.25 h; dosed: Wyeth-14643; 2.0 mg/kg; iv; Male; Sprague-Dawley
Rat [3] = test: concentration in plasma after dosing; conditions: 1 h; dosed: Wyeth-14643; 5.0 mg/kg; oral; Male; Sprague-Dawley
Rat [4] = test: concentration in plasma after dosing; conditions: 2.5 min; dosed: Wyeth-14643; 2.0 mg/kg; iv; Male; Sprague-Dawley
Rat [5] = test: concentration in plasma after dosing; conditions: 1 h; dosed: Bis 2-Chloroethoxy Methane; 40 mg/kg; iv; Male; Harlan Sprague Dawley
Rat [6] = test: concentration in thymus after dosing; conditions: 10 min; dosed: Bis 2-Chloroethoxy Methane; 20 mg/kg; iv; Female; F344
Rat [7] = test: concentration in plasma after dosing; conditions: 2 h; dosed: Bis 2-Chloroethoxy Methane; 20 mg/kg; iv; Female; F344
Rat [8] = test: concentration in plasma after dosing; conditions: 4 h; dosed: Bis 2-Chloroethoxy Methane; 20 mg/kg; iv; Female; F344
Rat [9] = test: concentration in plasma after dosing; conditions: 5 h; dosed: Bis 2-Chloroethoxy Methane; 20 mg/kg; iv; Female; F344
Rat [10] = test: concentration in thymus after dosing; conditions: 3 h; dosed: Bis 2-Chloroethoxy Methane; 20 mg/kg; iv; Female; F344
Rat [11] = test: concentration in heart after dosing; conditions: 40 min; dosed: Bis 2-Chloroethoxy Methane; 20 mg/kg; iv; Male; F344
Rat [12] = test: concentration in liver after dosing; conditions: 1 h; dosed: Bis 2-Chloroethoxy Methane; 20 mg/kg; iv; Male; F344
Rat [13] = test: concentration in plasma after dosing; conditions: dosed: Fluorotelomer alcohol 8+2, 12 mg/kg, iv, Male, F344
Rat [14] = test: concentration in kidney after dosing; conditions: 0.5 h; dosed: Fluorotelomer alcohol 8+2; 80 mg/kg; oral; Female; Harlan Sprague Dawley
Rat [15] = test: concentration in plasma after dosing; conditions: dosed: Fluorotelomer alcohol 8+2, 24 mg/kg, oral, Male, Harlan Sprague Dawley
Rat [16] = test: concentration in kidney after dosing; conditions: 12 h; dosed: Fluorotelomer alcohol 8+2; 80 mg/kg; oral; Female; Harlan Sprague Dawley
Rat [17] = test: concentration in liver after dosing; conditions: 3 h; dosed: Fluorotelomer alcohol 8+2; 80 mg/kg; oral; Female; Harlan Sprague Dawley
Rat [18] = test: concentration in plasma after dosing; conditions: 5 min; dosed: Di-n-butyl phthalate; 50 mg/kg; oral; Male; Sprague-Dawley
Rat [19] = test: concentration in plasma after dosing; conditions: 10 h; dosed: Di-n-butyl phthalate; 100 mg/kg; oral; Male; Sprague-Dawley
Rat [20] = test: concentration in plasma after dosing; conditions: 20 min; dosed: Di-n-butyl phthalate; 50 mg/kg; oral; Male; Sprague-Dawley
Rat [21] = test: concentration in kidney after dosing; conditions: 1848 h; dosed: Perfluorodecanoic acid; 10 mg/kg; oral; Female; Harlan Sprague Dawley
Rat [22] = test: concentration in kidney after dosing; conditions: 3360 h; dosed: Perfluorodecanoic acid; 10 mg/kg; oral; Male; Harlan Sprague Dawley
Rat [23] = test: concentration in plasma after dosing; conditions: dosed: Perfluorodecanoic acid, 2 mg/kg, iv, Male, F344
Rat [24] = test: concentration in liver after dosing; conditions: 864 h; dosed: Perfluorodecanoic acid; 10 mg/kg; oral; Male; Harlan Sprague Dawley
Rat [25] = test: concentration in kidney after dosing; conditions: 24 h; dosed: Perfluorodecanoic acid; 10 mg/kg; oral; Female; Harlan Sprague Dawley
Rat [26] = test: concentration in plasma after dosing; conditions: dosed: Perfluorodecanoic acid, 2 mg/kg, iv, Male, F344; remark: listed apart in the source
Rat [27] = test: concentration in plasma after dosing; conditions: 22 h; dosed: Primidone; 30 mg/kg; oral; Female; F344
Rat [28] = test: concentration in liver after dosing; conditions: 6.667 h; dosed: Thiodiglycolic Acid; 20 mg/kg; iv; Female; Harlan Sprague Dawley
Rat [29] = test: concentration in heart after dosing; conditions: 1 h; dosed: Thiodiglycolic Acid; 20 mg/kg; iv; Female; Harlan Sprague Dawley
Rat [30] = test: concentration in heart after dosing; conditions: 40 min; dosed: Thiodiglycolic Acid; 20 mg/kg; iv; Female; Harlan Sprague Dawley
Rat [31] = test: concentration in thymus after dosing; conditions: 10 min; dosed: Thiodiglycolic Acid; 20 mg/kg; iv; Male; F344
Rat [32] = test: concentration in thymus after dosing; conditions: 40 min; dosed: Thiodiglycolic Acid; 20 mg/kg; iv; Female; Harlan Sprague Dawley
Rat [33] = test: concentration in liver after dosing; conditions: 4 h; dosed: Thiodiglycolic Acid; 20 mg/kg; iv; Female; Harlan Sprague Dawley
Rat [34] = test: concentration in heart after dosing; conditions: 10 min; dosed: Thiodiglycolic Acid; 20 mg/kg; iv; Female; Harlan Sprague Dawley
rat [35] = test: concentration in plasma after dosing; conditions: dosed: trichloroethylene, 600.4 ppm, inhalation, duration: 4 hr, female, Fischer-344

concentration in plasma (Rat [1]): 10600 ng/mL
concentration in plasma (Rat [2]): 17400 ng/mL
concentration in plasma (Rat [3]): 5440 ng/mL
concentration in plasma (Rat [4]): 30500 ng/mL
SMILES: Cc1cccc(Nc2cc(Cl)nc(SCC(=O)O)n2)c1C

SMILES: ClCCOCOCCCl [Bis 2-Chloroethoxy Methane]
concentration in plasma (Rat [5]): 3100 ng/mL
concentration in thymus (Rat [6]): 50600 ng/g
concentration in plasma (Rat [7]): 150 ng/mL
concentration in plasma (Rat [8]): 63.4 ng/mL
concentration in plasma (Rat [9]): 24.8 ng/mL
concentration in thymus (Rat [10]): 448 ng/g
concentration in heart (Rat [11]): 6920 ng/g
concentration in liver (Rat [12]): 2070 ng/g

concentration in plasma (Rat [13]; 0.5 h): 1220 ng/mL
concentration in plasma (Rat [13]; 9 h): 19.6 ng/mL
concentration in kidney (Rat [14]): 3400 ng/g
concentration in plasma (Rat [15]; 5 min): 8.46 ng/mL
concentration in plasma (Rat [15]; 9 h): 44.8 ng/mL
concentration in kidney (Rat [16]): 351 ng/g
concentration in liver (Rat [17]): 13000 ng/g
SMILES: OCCC(F)(F)C(F)(F)C(F)(F)C(F)(F)C(F)(F)C(F)(F)C(F)(F)C(F)(F)F [Fluorotelomer alcohol 8+2]

SMILES: CCCCOC(=O)c1ccccc1C(=O)O [Mono-n-butyl phthalate]
concentration in plasma (Rat [18]): 4780 ng/mL
concentration in plasma (Rat [19]): 1170 ng/mL
concentration in plasma (Rat [20]): 16800 ng/mL

SMILES: O=C(O)C(F)(F)C(F)(F)C(F)(F)C(F)(F)C(F)(F)C(F)(F)C(F)(F)C(F)(F)C(F)(F)F [Perfluorodecanoic acid]
concentration in kidney (Rat [21]): 11800 ng/g
concentration in kidney (Rat [22]): 866 ng/g
concentration in plasma (Rat [23]; 12 h): 4670 ng/mL
concentration in plasma (Rat [23]; 1200 h): 1400 ng/mL
concentration in liver (Rat [24]): 54300 ng/g
concentration in kidney (Rat [25]): 57900 ng/g
concentration in plasma (Rat [26]; 1 h): 6010 ng/mL
concentration in plasma (Rat [26]; 528 h): 3220 ng/mL
concentration in plasma (Rat [26]; 3360 h): 204 ng/mL

SMILES: CCC1(c2ccccc2)C(=O)NC(=O)NC1=O [Phenobarbital]
concentration in plasma (Rat [27]): 720 ng/mL

SMILES: O=C(O)CSCC(=O)O [Thiodiglycolic Acid]
concentration in liver (Rat [28]): 7100 ng/g
concentration in heart (Rat [29]): 2560 ng/g
concentration in heart (Rat [30]): 3040 ng/g
concentration in thymus (Rat [31]): 9340 ng/g
concentration in thymus (Rat [32]): 3380 ng/g
concentration in liver (Rat [33]): 3490 ng/g
concentration in heart (Rat [34]): 8770 ng/g

SMILES: O=C(O)C(Cl)(Cl)Cl [trichloroacetic acid]
concentration in plasma (rat [35]; 0.1633 h): 10200 ng/mL
concentration in plasma (rat [35]; 0.5306 h): 11400 ng/mL
concentration in plasma (rat [35]; 0.898 h): 11800 ng/mL
concentration in plasma (rat [35]; 1.633 h): 13400 ng/mL
concentration in plasma (rat [35]; 2.122 h): 15800 ng/mL
concentration in plasma (rat [35]; 5.061 h): 18300 ng/mL
concentration in plasma (rat [35]; 21.1 h): 5730 ng/mL
concentration in plasma (rat [35]; 29.06 h): 2750 ng/mL
concentration in plasma (rat [35]; 46.08 h): 1150 ng/mL
